Measurements published in patent US11029285B2, “Real-time and quantitative measurement method for cell traction force” (HUNAN AGRICULTURAL UNIVERSITY, priority 2016, dated 2021).

Columns and labels:
Type in all cases: cell-based
[1] = tested on: H9C2 rat cardiomyocytes; test: Double resonator QCM (AT-cut/BT-cut) cell traction force of H9C2 rat cardiomyocytes under inotropic drugs; conditions: 20,000 H9C2 cells on bare gold
Method: (§1) The steps for measuring the cell traction force by using bare gold electrode AT-cut and BT-cut quartz crystals are as follows:
1) dripping 1 drop of Piranha solution (80° C. 1:3 (v:v) 30% H2O2:H2SO4) to the center of each quartz crystal gold electrode for about 30 s, then rinsing with distilled water, drying with nitrogen, and repeating this step by 3 times;
2) assembling the crystals in a Teflon well cell;
3) cleaning the Teflon cell twice with distilled water, then adding about 300 μL of sterilized water, and putting into a 5% CO2 incubator at 37° C.;
(§2) 4) checking to make sure that the 8-channel QCM instrument QCA922 has crystal resonant frequency and dynamic resistance outputs, connecting detection cells in turn, determining that each detection cell (e.g., two AT-cut crystal detection cells, two BT-cut crystal detection cells) works, and starting the software to acquire data; 5) removing the sterilized water after the data corresponding to each channel is stable, cleaning twice with sterilized water, then cleaning with PBS, add 52 μL of DMEM medium containing fetal bovine serum, and acquiring QCM resonant frequency (f) and dynamic resistance (R) data for 2 h; adding 250 μL of medium containing a certain number (e.g., 20,000) of H9C2 rat cardiomyocytes or human umbilical vein endothelial cells (HUVECs), continuously acquiring f and R data for about 20 h. The QCM relative frequency shift Δf and dynamic resistance change ΔR of each channel caused by the adhesion of cells at different adhesion time are determined by subtracting the corresponding QCM stable values in media of the channel at the time (t). 6) After the experiment, collecting the medium, gently washing with PBS, adding trypsin for digestion, and counting the cells in the collected fraction with a cytometer; 7) Quantitatively measuring the dynamic change ΔS in the cell traction force during the cell adhesion process according to the frequency shifts Δft^AT and Δft^BT of the paired AT-cut and BT-cut quartz crystals at the time t: ΔSt=(KAT−KBT)^−1[tq^ATΔft^AT/fr^AT−tq^BTΔft^BT/fr^BT] (1),
(§3) in which, ΔSt is the traction force of cells at the adhesion time t; KAT=2.75×10^−12 cm^2 dyn^−1 and KBT=−2.65×10^−12 cm^2dyn^−1 are stress coefficients of the AT-cut and BT-cut quartz crystals of given crystal orientations, respectively, and are constants. fr^AT and fr^BT are the resonant frequencies of the AT-cut and BT-cut quartz crystals, respectively; tq^AT and tq^BT are the thicknesses of the AT-cut and BT-cut quartz crystals, respectively, and are constants. Therefore, the surface stress or traction force applied to the crystal by cells in the adhesion process or under the action of a drug can be quantitatively measured according to the frequency shifts Δft^AT, Δft^BT (in Hz) of the AT-cut crystal, the BT-cut crystal at any time t relative to its reference point (e.g., a stabile value in the medium or a stabile value before dosing) based on formula (1). The frequency of the quartz crystal is a digital signal, which can be easily, quickly and continuously acquired or measured by a frequency counting device or a QCM special instrument. The crystal frequency used in the experiment of the present disclosure is 9 MHz, where tq^AT=0.0185 cm, and tq^BT=0.0282 cm. Thus, formula (1) can be simplified as: ΔSt=2.058×10^4(0.0185Δft^AT−0.0282Δft^BT) (2)
Experimental Steps for Effects of Cardiovascular Stimulating Drug Isoprenaline (ISO) and Inhibitory Drug Verapamil (VRP) on Traction Force of H9C2 Rat Cardiomyocytes
Take four Teflon well cells, two identical 9 MHz AT-cut gold electrode crystals and two identical 9 MHz BT-cut gold electrode crystals. […]

[2] = tested on: human umbilical vein endothelial cells; test: Double resonator QCM cell traction force of HUVECs on bare gold electrodes under thrombin or Y-27632; conditions: 20,000 HUVECs on bare gold
Text: as §1, §2, §3
Experimental Steps for Effects for Vascular Endothelial Barrier Function Destruction Drug Thrombin and Protective Drug Y-27632 on Traction Force of Human Umbilical Vein Endothelial Cells
Take four Teflon well cells, two identical 9 MHz AT-cut gold electrode crystals and two identical 9 MHz BT-cut gold electrode crystals. Based on the aforementioned steps of measuring the cell traction force with bare gold electrode AT-cut and BT-cut quartz crystals, add 300 μL DMEM medium to the four Teflon cells respectively, and collect data for about 2 h; add 300 μL of mediums containing 20,000 human umbilical vein endothelial cells respectively, collect data for about 24 h, then add the drugs thrombin and Y-27632 to the final concentrations, and continue to collect data for about 24 h.

[3] = tested on: human umbilical vein endothelial cells; test: Double resonator QCM cell traction force of HUVECs on KRGD or fibronectin modified crystals under blebbistatin or nocodazole; conditions: 20,000 HUVECs
Method: (§4) The Steps for Measuring the Cell Traction Force with AT-Cut and BT-Cut Quartz Crystals Modified with Specific Cell Adhesion Molecules RGD and Fibronectin are as Follows:
(§5) 1) cleaning with anhydrous ethanol and Millipore water, and blowing AT-cut and BT-cut 9 MHz crystals with nitrogen;
2) dripping 1 drop of Piranha solution (80° C. 1:3 (v:v) 30% H2O2:H2SO4) to the quartz crystal gold electrode for treating 30 s, rinsing with Millipore water and anhydrous ethanol, blowing with nitrogen, and repeating 3 times. […] Adding 20,000 HUVEC or H9C2 cells, and starting QCM for monitoring; 8) collecting the medium after the experiment, gently wash with PBS, adding trypsin for digestion, and measuring the cells in the collected fraction with a cytometer; and 9) Quantitatively estimating the dynamic change ΔS in the cell traction force during the cell adhesion process according to the frequency shifts Δft^AT and Δft^BT of the AT-cut and BT-cut quartz crystals modified with the same concentration of RGD or fibronectin at the time t based on formula (2). […]

[4] = tested on: human umbilical vein endothelial cells; test: QCM response and cell traction force during adhesion of HUVECs to fibronectin modified gold electrodes
Method: as §4, §5
2) dripping 1 drop of Piranha solution (80° C. 1:3 (v:v) 30% H2O2:H2SO4) to the quartz crystal gold electrode for treating 30 s, rinsing with Millipore water and anhydrous ethanol, blowing with nitrogen, and repeating 3 times. Dripping the anhydrous ethanol onto the electrode to stand for a few minutes, rinsing with sterile water, and blowing with nitrogen; 3) installing the surface treated AT-cut and BT-cut quartz crystals into Teflon well cells; 4) adding a mixed anhydrous ethanol solution of 20 mM 3-mercaptopropionic acid and 1 mM triethylene glycol mono-11-mercaptoundecyl ether to the Teflon cell at room temperature, and standing overnight in the dark; 5) taking out the solution, and rinsing with sterile water; adding a PBS buffer solution (pH=5.5) with 150 mM EDC and 30 mM NHS dissolved therein, and standing for about 30 min; 6) taking out the solution, and rinsing with PBS buffer solution (pH=5.5) and sterile water; adding a PBS solution of KRGD or fibronectin of different concentrations, and standing for 1-2 h (RGDK) or overnight (fibronectin); 7) taking out the solution, and rinsing with sterilized PBS and sterile water to obtain KRGD or fibronectin modified gold electrodes. Adding 20,000 HUVEC or H9C2 cells, and starting QCM for monitoring; 8) collecting the medium after the experiment, gently wash with PBS, adding trypsin for digestion, and measuring the cells in the collected fraction with a cytometer; and 9) Quantitatively estimating the dynamic change ΔS in the cell traction force during the cell adhesion process according to the frequency shifts Δft^AT and Δft^BT of the AT-cut and BT-cut quartz crystals modified with the same concentration of RGD or fibronectin at the time t based on formula (2).
However, as the adhesion time increases, the surface of the electrode may adsorb adherent factors beneficial to cell adhesion and extracellular matrix factors secreted by the cells, so that ΔS changes positively, and the cells are gradually spread and are finally close to the value of the cell traction force on the gold electrode modified at the low FN concentration (10 μg/mL).

[5] = tested on: human umbilical vein endothelial cells; test: Cell morphology simulation experiments under EGTA; conditions: after the EGTA treatments for five minutes
[6] = tested on: human umbilical vein endothelial cells; test: Double resonator QCM cell traction force of 50,000 HUVECs on bare gold electrodes under EGTA
Text: as §1, §2
as §3, with “The crystal frequency used in the experiment of the present disclosure is 9 MHz, where tq^AT=0.0185 cm, and tq^BT=0.0282 cm. Thus, formula (1) can be simplified as: ΔSt=2.058×10^4(0.0185Δft^AT−0.0282Δft^BT) (2)” left out

[7] = electrode modified at 30 μg/mL, 40 μg/mL FN

## COc1ccc(CCN(C)CCCC(C#N)(c2ccc(OC)c(OC)c2)C(C)C)cc1OC (stereo not shown) [VRP, verapamil]
[1]; VRP final concentration 25 nM
  QCM frequency f of AT-cut and BT-cut crystals: increased
  cell traction force ΔS: increases and changes positively
  dynamic resistance R of AT-cut and BT-cut crystals: decreased

## C[C@@H](N)[C@H]1CC[C@H](C(=O)Nc2ccncc2)CC1 [Y-27632]
[2]; 0.5 μM Y-27632
  cell traction force: decreases
  dynamic resistance: decreases
  frequency shift of the crystals: decreases

## CC(C)NCC(O)c1ccc(O)c(O)c1 (stereo not shown) [ISO, isoprenaline]
[1]; ISO final concentration 125 nM
  QCM frequency f of AT-cut and BT-cut crystals: decreased
  cell traction force ΔS: decreases and changes negatively
  dynamic resistance R of AT-cut and BT-cut crystals: increased

## COC(=O)Nc1nc2ccc(C(=O)c3cccs3)cc2[nH]1 [nocodazole]
[3]; crystals modified at 20 μg/mL fibronectin, 0.5 μM nocodazole
  cell traction force ΔS: increases at the beginning and then decreases

## thrombin
[2]; 0.1 unit/mL thrombin
  cell traction force: increases
  dynamic resistance: increases slightly
  frequency shift of the crystals: decreases

## Cc1ccc2c(c1)C(=O)C1(O)CCN(c3ccccc3)C1=N2 (stereo not shown) [blebbistatin]
[3]; crystals modified at 50 μg/mL KRGD, 1.22 μM blebbistatin
  cell traction force ΔS: decreases

## fibronectin [FN]
[4]; 20,000 HUVECs, gold electrode modified with FN, DMEM with 2% fetal bovine serum
  cell traction force ΔS (sign): positive
[4]; electrode modified at 10 μg/mL FN
  cell traction force, compared among FN concentrations: close and the least
[4]; electrode modified at 20 μg/mL FN, tested 0, 10, 20, 30, 40, 50 μg/mL
  ΔS, compared among FN concentrations: maximum and stable
[4]; [7]
  QCM frequency shift and dynamic resistance change responses, compared among FN concentrations: medium
  ΔS response over time: increases fastest at the beginning, but fluctuates with time and attenuates to some extent
[4]; electrode modified at 50 μg/mL FN
  cell traction force, compared among FN concentrations: close and the least

## O=C(O)CN(CCOCCOCCN(CC(=O)O)CC(=O)O)CC(=O)O [EGTA]
[5]
  cell spreading area: became smaller
[6]; 1 mM EGTA
  cell traction force in the initial phase: did not decrease but increase slightly
[6]; 10 mM EGTA
  cell generated force with the increase of EGTA time: decreases
[6]; 50 mM EGTA, compared with 10 mM
  cell generated force with the increase of EGTA time: decreases more quickly
[6]; after different concentrations of EGTA (1, 10, 50 mM) are added
  overall cell traction force: shows a tendency to decrease
